# Read-outs that look alike come from different tables or passages of the source.
# Assays:
# [1] = molecular target: Syk protein kinase (Homo sapiens (Human), UniProt P43405); experiment: In vitro evaluation of inhibitory activity against Syk protein kinase (HTRF KinEASE TK); format: biochemical
# Text: Test purpose: to measure an inhibitory IC50 value of the compounds against Syk protein kinase.
# Test material: Syk kinase (Invitrogen, PV3857) • DTT (Sigma#43815): dithiothreitol • ATP (Sigma#A7699): triphosadenine • MgCl2 (Sigma#63020): magnesium chloride • MnCl2 (Sigma#M1787): manganese chloride • EDTA (Invitrogen#15575-020): ethylenediaminetetraacetic acid • HEPES Buffer (Invitrogen#15630-080): zwitterionic sulfonic acid buffer • HTRF® KinEASE™ TK (Cisbio#62TK0PEC, 20000 tests): HTRF kinase kit • Low volume, 384-well, white polystyrene plate (Greiner#784075) • 384-well microplates (Greiner#781946) • Centrifuge (Eppendorf#5810R) • Micropipette (Eppendorf) • Pipette (Greiner) • Pipettor (Eppendorf) • Mutidorp injector • POD 810 Plate Assembler Fully Automatic Microplate Pretreatment System • Envision Reader […]
# [2] = Pharmacokinetics in plasma and eye tissues of male SD rats after single administration of eye drop; format: in vivo; conditions: for half-life / AUC(0-t) / Cmax / Tmax / AUC(0-inf) / MRT inf / Kp / MRT last: rat, topical or ocular; for AUC(0-inf) / MRT inf: extrapolated; for MRT inf: read-out: MRT0-inf; for Kp: read-out: AUC ratio (tissue AUC0-last/plasma AUC0-last); for MRT last: read-out: MRT0-last
# Method: Test purpose: to study pharmacokinetics of the compound in eye tissues of male SD rats after single administration of eye drop
# Test material: SD rats (male, 7 to 10 weeks of age, WTLH/SLAC)
# Test operation: In this test, 18 male SD rats were provided by Beijing Vital River Laboratory Animal Technology Co., Ltd., and were randomly divided into 6 groups (3 rats/group), and each group of animals were given […] (5 mg/mL for both eyes, 30 μL/eye) of OT202 eye drops during single administration. All animals were not fasted before administration.
# [3] = SD (Sprague-Dawley), male SD rats, single eye drop 5 mg/mL, 30 μL/eye, both eyes, Aqueous humor of anterior chamber
# [4] = SD (Sprague-Dawley), male SD rats, single eye drop 5 mg/mL, 30 μL/eye, both eyes, Bulbar conjunctiva
# [5] = SD (Sprague-Dawley), male SD rats, single eye drop 5 mg/mL, 30 μL/eye, both eyes, Cornea
# [6] = SD (Sprague-Dawley), male SD rats, single eye drop 5 mg/mL, 30 μL/eye, both eyes, Plasma
# [7] = SD (Sprague-Dawley), male SD rats, single eye drop 5 mg/mL, 30 μL/eye, both eyes, Upper and lower eyelids
# [8] = male SD rats, single eye drop 5 mg/mL, 30 μL/eye, both eyes, Aqueous humor of anterior chamber
# [9] = male SD rats, single eye drop 5 mg/mL, 30 μL/eye, both eyes, Bulbar conjunctiva
# [10] = male SD rats, single eye drop 5 mg/mL, 30 μL/eye, both eyes, Cornea
# [11] = male SD rats, single eye drop 5 mg/mL, 30 μL/eye, both eyes, Plasma
# [12] = male SD rats, single eye drop 5 mg/mL, 30 μL/eye, both eyes, Upper and lower eyelids
smiles,measurement,setting,value
c1cn2c(n1)c(Nc1ccc(N3CCOCC3)cc1)nc1ccc(-c3cn[nH]c3)cc12,IC50,[1]; ATP 2 μM,25 nM
same,inhibitory activity against Syk,[1]; conclusion in words,good inhibitory activity
same,half-life,"[2]; SD (Sprague-Dawley), both eyes, male SD rats, single eye drop 5 mg/mL, 30 μL/eye, Aqueous humor of anterior chamber, sampling range 6-24 h",738 min
same,half-life,"[2]; SD (Sprague-Dawley), both eyes, male SD rats, single eye drop 5 mg/mL, 30 μL/eye, Bulbar conjunctiva, sampling range 1-24 h, linear regression coefficient of elimination phase less than 0.9",307 min
same,half-life,"[2]; SD (Sprague-Dawley), both eyes, male SD rats, single eye drop 5 mg/mL, 30 μL/eye, Cornea, sampling range 1-24 h",290 min
same,half-life,"[2]; SD (Sprague-Dawley), both eyes, male SD rats, single eye drop 5 mg/mL, 30 μL/eye, Plasma, sampling range 1-6 h, linear regression coefficient of elimination phase less than 0.9",288 min
same,half-life,"[2]; SD (Sprague-Dawley), both eyes, male SD rats, single eye drop 5 mg/mL, 30 μL/eye, Upper and lower eyelids, sampling range 1-24 h",567 min
same,AUC(0-t),[2]; [3],0.657 µM·h
same,Cmax,[2]; [3],560 nM
same,Tmax,[2]; [3],30 min
same,AUC(0-inf),[2]; [3],0.711 µM·h
same,AUC(0-t),[2]; [4],15.5 µM·h
same,Cmax,[2]; [4],4510 nM
same,Tmax,[2]; [4],30 min
same,AUC(0-inf),[2]; [4],16.4 µM·h
same,AUC(0-t),[2]; [5],2.53 µM·h
same,Cmax,[2]; [5],1590 nM
same,Tmax,[2]; [5],30 min
same,AUC(0-t),[2]; [6],0.00532 µM·h
same,Cmax,[2]; [6],1.23 nM
same,Tmax,[2]; [6],60 min
same,AUC(0-inf),[2]; [6],0.00956 µM·h
same,AUC(0-t),[2]; [7],65.5 µM·h
same,Cmax,[2]; [7],10400 nM
same,Tmax,[2]; [7],30 min
same,"pharmacokinetic features, including eye-to-blood ratio, tissue exposure",[2]; conclusion in words,good pharmacokinetic features
same,AUC0-inf/AUC0-last (%),[2]; [8],108%
same,Tlast,[2]; [8],24.0 h
same,AUC0-inf/AUC0-last (%),[2]; [9],106%
same,Tlast,[2]; [9],24.0 h
same,AUC0-inf/AUC0-last (%),[2]; [10],102%
same,Tlast,[2]; [10],24.0 h
same,AUC0-inf/AUC0-last (%),[2]; [11],180%
same,Tlast,[2]; [11],6.00 h
same,AUC0-inf/AUC0-last (%),[2]; [12],122%
same,AUC ratio (tissue AUC0-last/plasma AUC0-last),[2]; [12],12300
same,Tlast,[2]; [12],24.0 h
same,MRT inf,[2]; [8],6.27 h
same,Kp,[2]; [8],123
same,MRT last,[2]; [8],3.35 h
same,MRT inf,[2]; [9],6.73 h
same,Kp,[2]; [9],2910
same,MRT last,[2]; [9],5.28 h
same,AUC(0-inf),[2]; [10],2.59 µM·h
same,MRT inf,[2]; [10],5.74 h
same,Kp,[2]; [10],476
same,MRT last,[2]; [10],5.05 h
same,MRT inf,[2]; [11],7.39 h
same,MRT last,[2]; [11],2.98 h
same,AUC(0-inf),[2]; [12],80 µM·h
same,MRT inf,[2]; [12],13.7 h
same,MRT last,[2]; [12],8.4 h

# — US20240132503A1, “SALT FORM AND CRYSTAL FORM OF PYRAZOLE SUBSTITUTED IMIDAZO[1,2- A]QUINOXALINE DERIVATIVE” (OCUMENSION THERAPEUTICS (SUZHOU) CO., LTD, priority 2021, published 2024)
